Laboratory results as given in patent US9605005B2, “Alkynyl alcohols and methods of use” (Genentech, Inc., priority 2013, dated 2017).
Where two headings read alike, the source gives them in different places.

Assays:
[1] = biological target: nuclear factor-kappa B (NF-kB)-inducing kinase (NIK) (Homo sapiens (Human), UniProt Q99558); experiment: NIK enzyme inhibition assay (Transcreener ADP, NIK ADP-FP); assay type: biochemical
[2] = tested on: p52 (NF-kB2) nuclear translocation, HeLa cells; experiment: p52 (NF-kB2) nuclear translocation assay in HeLa cells (non-classical NF-kB signaling, anti-lymphotoxin beta receptor antibody stimulated); assay type: cell-based; conditions: Homo sapiens, 100 ng/mL anti-lymphotoxin beta receptor antibody for 5 hours, read-out: p52 HeLa Transloc Assay (IC50)
Procedure: (§1) Several assays were developed to profile the cellular activities of NIK inhibitors.
(§2) (2) A second set of cell assay are used to define the selectivity of NIK inhibitors toward inhibition of classical vs. non-classical NF-kB signaling and rely on quantification of the nuclear translocation of p52 (NF-kB2) and REL-A (p65) using high content cellular imaging. For the p52 (non-classical NF-kB signaling) nuclear translocation assay, HeLa cells are treated with different concentrations of compounds (0.2% DMSO final) in medium containing 10% fetal bovine serum and then stimulated with 100 ng/mL of an anti-lymphotoxin beta receptor antibody (R&D Systems) for 5 hours. In the REL-A nuclear translocation assay, HeLa cells are incubated with compounds (0.2% DMSO final) for 4.5 hours in medium containing 10% fetal bovine serum before stimulating them with 10 ng/mL tumor necrosis factor (TNF)-α (R&D Systems) for 30 minutes. Cells are fixed with 4% paraformaldehyde, permeabilized by adding 0.1% Triton X-100 in phosphate buffered saline, and then are incubated with either 2 ug/mL anti-p52 antibody (Millipore) or 400 ng/mL anti-REL-A (p65) antibody (Santa Cruz Biotechnology). Finally, the cells are incubated with an Alexa488-labeled secondary antibody (Invitrogen) and DRAQ5 DNA stain (Biostatus). Imaging is carried out using an Opera reader (Perkin Elmer) and data are analyzed with the aid of Acapella software (Perkin Elmer). The p52 or REL-Atranslocation into the nucleus is quantified by the ratio of the nuclear to cytoplasmic signal intensity. […] The compounds in listed in Table 1 have the corresponding inhibitory value (IC50 in micromolar) for NIK p52 Translocation Assay as set forth in Table 2.
(§3) The compounds in listed in Table 1 have the corresponding inhibitory values (IC50 in micromolar) for the Translocation Assays as set forth in Table 2.

[3] = tested on: REL-A (p65) nuclear translocation, HeLa cells; experiment: REL-A (p65) nuclear translocation assay in HeLa cells (classical NF-kB signaling, TNF-α stimulated); assay type: cell-based; conditions: Homo sapiens, 0.5 h
Procedure: as §1, §2, §3

[4] = purified NIK 0.5 nM, 10 μM ATP, fluorescence polarization, read-out: NIK ADP-FP (Ki μM)
[5] = HeLa cells, 10 ng/mL TNF-α for 30 minutes, read-out: REL-A HeLa Transloc Assay (IC50)

nuclear factor-kappa B (NF-kB)-inducing kinase (NIK), sequence (Q99558 whole entry): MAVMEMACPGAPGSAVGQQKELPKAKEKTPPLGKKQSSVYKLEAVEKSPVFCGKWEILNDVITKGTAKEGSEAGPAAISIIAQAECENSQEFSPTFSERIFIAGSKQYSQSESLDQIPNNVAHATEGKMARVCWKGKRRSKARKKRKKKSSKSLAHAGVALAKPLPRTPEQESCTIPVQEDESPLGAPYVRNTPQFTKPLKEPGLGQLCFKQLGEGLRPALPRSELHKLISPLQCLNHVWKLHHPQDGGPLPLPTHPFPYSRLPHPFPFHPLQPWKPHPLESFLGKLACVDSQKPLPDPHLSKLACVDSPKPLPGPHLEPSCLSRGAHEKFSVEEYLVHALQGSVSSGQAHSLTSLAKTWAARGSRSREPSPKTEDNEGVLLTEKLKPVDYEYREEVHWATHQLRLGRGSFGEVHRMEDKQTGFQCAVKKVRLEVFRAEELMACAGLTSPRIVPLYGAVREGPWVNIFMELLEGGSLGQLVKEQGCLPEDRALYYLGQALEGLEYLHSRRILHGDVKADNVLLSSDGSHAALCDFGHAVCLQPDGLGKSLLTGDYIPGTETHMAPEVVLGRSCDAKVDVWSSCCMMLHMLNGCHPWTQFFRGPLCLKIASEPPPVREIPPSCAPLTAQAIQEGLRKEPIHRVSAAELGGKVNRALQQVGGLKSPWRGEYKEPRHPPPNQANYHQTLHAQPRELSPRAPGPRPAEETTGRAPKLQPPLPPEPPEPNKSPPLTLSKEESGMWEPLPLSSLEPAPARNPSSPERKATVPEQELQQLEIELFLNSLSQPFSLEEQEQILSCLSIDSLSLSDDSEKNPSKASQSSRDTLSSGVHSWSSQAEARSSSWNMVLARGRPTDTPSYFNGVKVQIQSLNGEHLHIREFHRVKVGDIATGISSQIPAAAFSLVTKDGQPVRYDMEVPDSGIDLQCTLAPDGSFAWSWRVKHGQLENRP

Row | SMILES | Ki [1, 4] [nM] | IC50 [2] [nM] | IC50 [3, 5] [µM] | further results
1 | CC(O)(C#Cc1cccc(-n2nc(C(N)=O)c3ccccc32)c1)c1nccs1 (single isomer, unassigned) [Compound 170] | 0.75 | 244 | – | IC50 ([3]; HeLa, read-out: REL-A HeLa Transloc Assay (IC50) [μM]): 17.1 µM
2 | CN1CC[C@@](O)(C#Cc2cccc(-n3nc(C(N)=O)c4ccccc43)c2)C1=O [Compound 1, 1-[3-[2-[(3R)-3-hydroxy-1-methyl-2-oxo-pyrrolidin-3-yl]ethynyl]phenyl]indazole-3-carboxamide] | – | 57 | 20 | –
3 | CN1CC[C@@](O)(C#Cc2cccc(-n3nc(C(N)=O)c4c3CCC[C@H]4O)c2)C1=O [Compound 2, (4R)-4-hydroxy-1-[3-[2-[(3R)-3-hydroxy-1-methyl-2-oxo-pyrrolidin-3-yl]ethynyl]phenyl]-4,5,6,7-tetrahydroinda-zole-3-carboxamide] | 1.07 | 273 | 20 | –
4 | CN1CC[C@@](O)(C#Cc2cccc(-n3nc(C(N)=O)c4c3CCC[C@@H]4O)c2)C1=O [Compound 3, (4S)-4-hydroxy-1-[3-[2-[(3R)-3-hydroxy-1-methyl-2-oxo-pyrrolidine-3-yl]ethynyl]phenyl]-4,5,6,7-tetrahydroinda-zole-3-carboxamide] | 1.13 | 544 | 20 | –
5 | CN1CC[C@@](O)(C#Cc2cccc(-n3nc(C(N)=O)c4cc(F)ccc43)c2)C1=O [Compound 13, 5-fluoro-1-[3-[2-[(3R)-3-hy-droxy-1-methyl-2-oxo-pyrroli-din-3-yl]ethynyl]phenyl] indazole-3-carboxamide] | – | 73 | 20 | –
6 | CN1CC[C@@](O)(C#Cc2ccnc(-n3nc(C(N)=O)c4c3CCCC4)c2)C1=O [Compound 51, 1-[4-[2-[(3R)-3-hydroxy-1-methyl-2-oxo-pyrrolidin-3-yl]ethynyl]-2-pyridyl]-4,5,6,7-tetrahydroindazole-3-carbox-amide] | – | 225 | 7.19 | –
7 | CN1CC[C@@](O)(C#Cc2ccnc(-n3nc(C(N)=O)c4ccccc43)c2)C1=O [Compound 52, 1-[4-[2-[(3R)-3-hydroxy-1-methyl-2-oxo-pyrrolidin-3-yl]ethynyl]-2-pyridyl]indazole-3-carboxamide] | – | 22.8 | 20 | –
8 | CN1CC[C@@](O)(C#Cc2cccc(-n3nc(C(N)=O)c4cccnc43)c2)C1=O [Compound 53, 1-[3-[2-[(3R)-3-hydroxy-1-methyl-2-oxo-pyrrolidin-3-yl]ethynyl]phenyl]pyrazolo [3,4-b]pyridine-3-carboxamide] | – | 37.9 | 20 | –
9 | CN1CC[C@@](O)(C#Cc2ccnc(-n3nc(C(N)=O)c4cc(F)ccc43)c2)C1=O [Compound 54, 5-fluoro-1-[4-[2-[(3R)-3-hy-droxy-1-methyl-2-oxo-pyrroli-din-3-yl]ethynyl]-2-pyri-diyl]indazole-3-carboxamide] | – | 39 | 2 | –
10 | COc1cnc2c(c1)c(C(N)=O)nn2-c1cccc(C#C[C@]2(O)CCN(C)C2=O)c1 [Compound 74, 1-[3-[2-[(3R)-3-hydroxy-1-methyl-2-oxo-pyrrolidin-3-yl]ethynyl]phenyl]-5-methoxy-pyrazolo[3,4-b]pyridine-3-carboxamide] | – | 13.9 | 8 | –
11 | CN1CC[C@@](O)(C#Cc2cccc(-c3nc(C(N)=O)n4ccccc34)c2)C1=O [Compound 77, 1-[3-[2-[(3R)-3-hydroxy-1-methyl-2-oxo-pyrrolidin-3-yl]ethynyl]phenyl]imidazo[1,5-a]pyridine-3-carboxamide] | – | 29.8 | 20 | –
12 | CN1CC[C@@](O)(C#Cc2cccc(-c3nc(C(N)=O)c4ccccn34)c2)C1=O [Compound 88, 3-[3-[2-[(3R)-3-hydroxy-1-methyl-2-oxo-pyrrolidin-3-yl]ethynyl]phenyl]imidazo[1,5-a]pyridine-1-carboxamide] | – | 240 | 20 | –
13 | COc1ccc2c(-c3cccc(C#C[C@]4(O)CCN(C)C4=O)c3)nc(C(N)=O)n2c1 [Compound 98, 1-[3-[2-[(3R)-3-hydroxy-1-methyl-2-oxo-pyrrolidin-3-yl]ethynyl]phenyl]-6-methoxy-imidazo[1,5-a]pyridine-3-carboxamide] | – | 17 | 6.32 | –
14 | CN1CC[C@@](O)(C#Cc2cccc(-n3nc(C(N)=O)c4cc(-c5ncc[nH]5)ccc43)c2)C1=O [Compound 182, 1-[3-[2-[(3R)-3-hydroxy-1-methyl-2-oxo-pyrrolidin-3-yl]ethynyl]phenyl]-5-(1H-imidazol-2-yl)indazole-3-carboxamide] | 1.51 | – | – | –
15 | COC1CN(c2cnc3c(c2)c(C(N)=O)nn3-c2cccc(C#C[C@]3(O)CCN(C)C3=O)c2)C1 [Compound 183, 1-[3-[2-[(3R)-3-hydroxy-1-methyl-2-oxo-pyrrolidin-3-yl]ethynyl]phenyl]-5-(3-methoxyazetidin-1-yl) pyrazolo[3,4-b]pyridine-3-carboxamide] | 0.19 | – | – | –
16 | CN(C)C(=O)c1ccc2c(c1)c(C(N)=O)nn2-c1cccc(C#C[C@]2(O)CCN(C)C2=O)c1 [Compound 184, 1-[3-[2-[(3R)-3-hydroxy-1-methyl-2-oxo-pyrrolidin-3-yl]ethynyl]phenyl]-N5, N5-dimethyl-indazole-3,5-dicarboxamide] | 103 | – | – | –
17 | CN1CC[C@@](O)(C#Cc2cccc(-n3nc(C(N)=O)c4cnncc43)c2)C1=O [Compound 190, 1-[3-[2-[(3R)-3-hydroxy-1-methyl-2-oxo-pyrrolidin-3-yl]ethynyl]phenyl]pyrazolo [3,4-d]pyridazine-3-carboxamide] | – | – | – | Ki [1]: 6.8 nM
18 | CN1CC[C@@](O)(C#Cc2ccc(F)c(-n3nc(C(N)=O)c4c3COC4)c2)C1=O [Compound 191, 1-[2-fluoro-5-[2-[(3R)-3-hydroxy-1-methyl-2-oxo-pyrrolidin-3-yl]ethynyl]phenyl]-4,6-dihydrofuro[3,4-c] pyrazole-3-carboxamide] | 1.11 | – | – | –
19 | CN1CC[C@@](O)(C#Cc2cccc(-c3nc(C(N)=O)c4n3CCC4)c2)C1=O [Compound 192, 3-[3-[2-[(3R)-3-hydroxy-1-methyl-2-oxo-pyrrolidin-3-yl]ethynyl]phenyl]-6,7-dihydro-5H-pyrrolo[1,2-c] imidazole-1-carboxamide] | 28.1 | – | – | –
20 | C[C@H]1Cc2c(C(N)=O)nn(-c3cccc(C#C[C@]4(O)CCN(C)C4=O)c3)c2C1 [Compound 193, (5S)-1-[3-[2-[(3R)-3-hydroxy-1-methyl-2-oxo-pyrrolidin-3-yl]ethynyl]phenyl]-5-methyl-5,6-dihydro-4H-cyclopenta[c]pyrazole-3-carboxamide] | 0.1 | – | – | –
21 | C[C@@H]1Cc2c(C(N)=O)nn(-c3cccc(C#C[C@]4(O)CCN(C)C4=O)c3)c2C1 [Compound 194, (5R)-1-[3-[2-[(3R)-3-hydroxy-1-methyl-2-oxo-pyrrolidin-3-yl]ethynyl]phenyl]-5-methyl-5,6-dihydro-4H-cyclopenta[c]pyrazole-3-carboxamide] | 0.05 | – | – | –
22 | CN1CC[C@@](O)(C#Cc2cccc(-c3nc(C(N)=O)c(N)s3)c2)C1=O [Compound 195, 5-amino-2-[3-[2-[(3R)-3-hydroxy-1-methyl-2-oxo-pyrrolidin-3-yl]ethynyl]phenyl]thiazole-4-carboxamide] | 0.05 | – | – | –
23 | CNc1nc2c(s1)c(C(N)=O)nn2-c1cccc(C#C[C@]2(O)CCN(C)C2=O)c1 [Compound 196, 1-[3-[2-[(3R)-3-hydroxy-1-methyl-2-oxo-pyrrolidin-3-yl]ethynyl]phenyl]-5-(methylamino)pyrazolo[3,4-d] thiazole-3-carboxamide] | 0.05 | – | – | –
24 | Cc1sc(-c2cc(C#C[C@]3(O)CCN(C)C3=O)ccc2F)nc1C(N)=O [Compound 197, 2-[2-fluoro-5-[2-[(3R)-3-hydroxy-1-methyl-2-oxo-pyrrolidin-3-yl]ethynyl]phenyl]-5-methyl-thiazole-4-carboxamide] | 0.053 | – | – | –
25 | CN1CC[C@@](O)(C#Cc2cccc(-n3nc(C(N)=O)c4c3NCCC4)c2)C1=O [Compound 198, 1-[3-[2-[(3R)-3-hydroxy-1-methyl-2-oxo-pyrrolidin-3-yl]ethynyl]phenyl]-4,5,6,7-tetrahydropyrazolo[3,4-b]pyridine-3-carboxamide] | 0.29 | – | – | –
26 | CN1CC[C@@](O)(C#Cc2cccc(-n3nc(C(N)=O)c4c3CC(F)(F)C4)c2)C1=O [Compound 199, 5,5-difluoro-1-[3-[2-[(3R)-3-hydroxy-1-methyl-2-oxo-pyrrolidin-3-yl]ethynyl]phenyl]-4,6-dihydrocyclopenta [c]pyrazole-3-carboxamide] | 0.26 | – | – | –
